Data reported in patent publication US7781454B2 (priority 2006, dated 2010).
Where a name gives a salt, the structure may show the parent alone. Read-outs that look alike come from different tables or passages of the source.

What was measured:
[1] = molecular target: HIV-1 RT enzyme (wild-type) (Human immunodeficiency virus type 1 group M subtype B, UniProt P04585); assay: ECL assay for inhibition of HIV reverse transcriptase (WT); type: biochemical
Protocol: (§1) 100 μL reaction mixtures were initiated with a combination of primer-template substrate ([…]) and dNTPs (0.6 μM dNTPs, 1.25 μM BrdUTP). The heterodimeric nucleic acid substrate was generated by annealing the DNA primer pD500 (described in Shaw-Reid et al., J. Biol. Chem., 278: 2777-2780; obtained from Integrated DNA Technologies) to t500, a 500 nucleotide RNA template created by in vitro transcription (see Shaw-Reid et al., J. Biol. Chem., 278: 2777-2780). After 1 hour incubation at 37° C., reactions were quenched by 10 μL of 1 N NaOH. Microtiter plates were incubated for an additional 30 minutes at room temperature and then neutralized with 10 μL of 1 N HCl. A mixture of detection buffer containing ruthenylated anti-BrdU antibody and streptavidin coated magnetic beads were added to the plate and incubated at room temperature for 1.5 hours prior to quantification via electrochemiluminescence instrument.

[2] = molecular target: T1, mutant HIV reverse transcriptase (K103N mutation) (Human immunodeficiency virus type 1 group M subtype B, UniProt P04585, K690N); assay: ECL assay for inhibition of mutant HIV reverse transcriptase (K103N); type: biochemical
T1 construct: against mutant HIV reverse transcriptase; made in house
Protocol: as §1
(§2) Analogous assays were conducted substituting mutant HIV strains to determine the in vitro inhibition of compounds of the present invention against mutant HIV reverse transcriptase. In one strain the reverse transcriptase has the Y181C mutation and in the other strain the reverse transcriptase has the K103N mutation. The mutations were generated with the QUIKCHANGE site-directed mutagenesis kit (Stratagene).

[3] = molecular target: T2, mutant HIV reverse transcriptase (Y181C mutation) (Human immunodeficiency virus type 1 group M subtype B, UniProt P04585, Y768C); assay: ECL assay for inhibition of mutant HIV reverse transcriptase (Y181C); type: biochemical
T2 construct: against mutant HIV reverse transcriptase; made in house
Protocol: as §1, §2

wild type HIV-1 = assay: Spread assay: inhibition of acute HIV-1 infection of T-lymphoid cells (WT); type: cell-based; details: Human immunodeficiency virus 1, T-lymphoid; wild-type strain; 10% FBS; read-out: Spread (WT) CIC95
Protocol: (§3) Assays for the inhibition of acute HIV-1 infection of T-lymphoid cells (alternatively referred to herein as the “spread assay”) were conducted in accordance with Vacca, J. P. et al., Proc. Natl. Acad. Sci. USA 1994, 91: 4096. The assays tested for inhibition of wild type HIV-1 and of HIV strains containing the Y181C or K103N mutation. […] The compounds of Examples 1 to 4 had CIC95 values of less than 10 micromolar in the assay employing the K103N mutant strain. […] Table C also reports the CIC95 values of the compounds of Examples 1-7, 9-13 and 15-29 obtained in the assays employing the Y181C mutant strain and the K103N mutant strain.

[4] = tested on: HIV strain containing the K103N mutation; assay: Spread assay: inhibition of HIV replication (K103N mutant strain); type: cell-based; details: Human immunodeficiency virus 1, read-out: Spread (K103N) CIC95
Protocol: as §3

[5] = tested on: HIV strain containing the Y181C mutation; assay: Spread assay: inhibition of HIV replication (Y181C mutant strain); type: cell-based; details: Human immunodeficiency virus 1, read-out: Spread (Y181C) CIC95
Protocol: as §3

[6] = K103N mutant RT, read-out: ECL Assay (K103N) IC50
[7] = Y181C mutant RT, read-out: ECL Assay (Y181C) IC50

| Structure (SMILES) | IC50 [1] | IC50 [2, 6] | IC50 [3, 7] | IC95 (wild type HIV-1) | IC95 [4] | IC95 [5] | IC50 [2] | IC50 [3] |
| --- | --- | --- | --- | --- | --- | --- | --- | --- |
| N#Cc1cc(Cl)cc(Oc2c(Cl)ccc3c2cnn3Cc2n[nH]c3nc(N)ccc23)c1 [Example 3, 3-{[5-Chloro-4-(3-chloro-5-cyanophenoxy)-1H-indazol-1-yl]methyl}-1H-pyrazolo[3,4-b]pyridin-6-aminium chloride] | 0.6 nM | 1.7 nM | 1.9 nM | 9 nM | 23 nM | 77 nM |  |  |
| O=Cc1cc(Cl)cc(Oc2c(Cl)ccc3c2nnn3Cc2n[nH]c3ncccc23)c1 [Example 18, 3-chloro-5-{[5-chloro-1-(1H-pyrazolo[3,4-b]pyridin-3-ylmethyl)-1H-1,2,3-benzotriazol-4-yl]oxy}benzaldehyde] | 2.1 nM | 2.6 nM | 3.7 nM | 55 nM | 154 nM | 825 nM |  |  |
| N#Cc1cc(Cl)cc(Oc2c(Cl)ccc3c2ncn3Cc2n[nH]c3nc(N)ccc23)c1 [Example 10, 3-({1-[(6-amino-1H-pyrazolo[3,4-b]pyridin-3-yl)methyl]-5-chloro-1H-benzimidazol-4-yl}oxy)-5-chlorobenzonitrile bis(trifluoroacetate)] | 1.5 nM |  |  | 21 nM | 85 nM | 468 nM | 13 nM | 13 nM |
| N#Cc1cc(Cl)cc(Oc2c(Cl)ccc3c2ncn3Cc2n[nH]c3ncccc23)c1 [Example 7, 3-chloro-5-{[5-chloro-1-(1H-pyrazolo[3,4-b]pyridin-3-ylmethyl)-1H-benzimidazol-4-yl]oxy}benzonitrile dihydrochloride] | 0.92 nM |  |  | 28 nM | 39 nM | 225 nM | 4.1 nM | 1.7 nM |
| N#Cc1cc(Cl)cc(Oc2c(Cl)ccc3c2nnn3Cc2n[nH]c3nc(N)ccc23)c1 [Example 6, 3-({1-[(6-amino-1H-pyrazolo[3,4-b]pyridin-3-yl)methyl]-5-chloro-1H-1,2,3-benzotriazol-4-yl}oxy)-5-chlorobenzonitrile] | 0.4 nM | 0.53 nM | 0.82 nM | 3 nM | < 4 nM | 25 nM |  |  |
| N#Cc1cc(Cl)cc(Oc2c(Cl)ccc3c2cnn3Cc2n[nH]c3ncccc23)c1 [Example 1, 3-Chloro-5-{[5-chloro-1-(1H-pyrazolo[3,4-b]pyridin-3-ylmethyl)-1H-indazol-4-yl]oxy}benzonitrile] | 0.35 nM | 0.57 nM | 0.6 nM | 13 nM | 17 nM | 69 nM |  |  |
